In the RepoRT retention time repository (doi:10.1016/j.aca.2011.01.006):

experiment: Waters SunFire C18, 150 × 2.1 mm, 3.5 µm, 35 °C, 0.3 mL/min, estimated dead time 1.1 min; A: water + 0.1% formic acid; B: acetonitrile + 0.1% formic acid; gradient (min/%B) 0/20 5/20 20/50 25/100; settings: stereoisomer not certain

First: CN1CC(=O)N2C(Cc3c([nH]c4ccccc34)C2c2ccc3c(c2)OCO3)C1=O (configuration not stated)
Second: CN1CCOC(c2ccccc2)c2ccccc2C1 (configuration not stated)
The LC retention time of the first is 6-fold higher: 17.4 min for the first, 2.9 min for the second.

First: CC(C)[N+](C)(CCOC(=O)C1c2ccccc2Oc2ccccc21)C(C)C
Second: CC(C)[N+](C)(CCC(C(N)=O)(c1ccccc1)c1ccccc1)C(C)C
The LC retention time of the first is 2.9-fold higher: 9.8 min for the first, 3.4 min for the second.

First: CCCc1nc(C)c2c(=O)[nH]c(-c3cc(S(=O)(=O)N4CCN(CC)CC4)ccc3OCC)nn12
Second: CCCc1nn(C)c2c(=O)[nH]c(-c3cc(S(=O)(=O)N4CCN(C)CC4)ccc3OCC)nc12
The LC retention time of the first is 2.4-fold lower: 3.4 min for the first, 8.2 min for the second.

`CC12CCC(=O)C=C1C=CC1C2CCC2(C)C1CCC21CCC(=O)O1` (configuration not stated) and `CC12CCC(=O)C=C1C=CC1C2CCC2(C)C1CCC2(O)CCC(=O)O` (configuration not stated) are within 1.5-fold of each other in LC retention time: 22 min for the first, 16.1 min for the second.

Going from `O=C1NC(=O)C(c2ccccc2)(c2ccccc2)N1` to `CCC1(c2ccccc2)C(=O)NC(=O)NC1=O`, the LC retention time falls from 14.7 min to 4.9 min (3-fold).

Going from `CN1C(C(=O)Nc2ccccn2)=C(O)c2sccc2S1(=O)=O` to `CN1C(C(=O)Nc2ccccn2)=C(O)c2ccccc2S1(=O)=O`, the LC retention time rises from 9 min to 15.2 min (1.7-fold).

Compared with `CN(C)CCOC(c1ccccc1)c1ccccc1`, `CN(C)CCCOc1nn(Cc2ccccc2)c2ccccc12` is 1.9-fold higher in LC retention time: 5.1 min for the first, 9.9 min for the second.

`CCN(CC)CCOC(=O)C(Cc1cccc2ccccc12)CC1CCCO1` (configuration not stated) and `CCN(CC)CCOCCOC(=O)C1(c2ccccc2)CCCC1` are within 1.5-fold of each other in LC retention time: 11.1 min for the first, 10 min for the second.

`CC(C(=O)O)c1cccc(C(=O)c2ccccc2)c1` (configuration not stated) and `O=C(c1ccccc1)c1ccc2n1CCC2C(=O)O` (configuration not stated) are within 1.5-fold of each other in LC retention time: 19.3 min for the first, 16.3 min for the second.

Going from `CC(C)[N+]1(C)C2CCC1CC(OC(=O)C(CO)c1ccccc1)C2` (configuration not stated) to `CCCC[N+]1(C)C2CC(OC(=O)C(CO)c3ccccc3)CC1C1OC12` (configuration not stated), the LC retention time rises from 1.4 min to 2.3 min (1.6-fold).

`Oc1ccc2c(c1)C13CCCCC1(O)C(C2)N(CC1CCC1)CC3` (configuration not stated) and `COc1cccc(C2(O)CCCCC2CN(C)C)c1` (configuration not stated) are within 1.5-fold of each other in LC retention time: 2.5 min for the first, 1.9 min for the second.

Going from `Cc1cccc(C)c1NC(=O)C1CCCCN1C` (configuration not stated) to `CCCCN1CCCCC1C(=O)Nc1c(C)cccc1C` (configuration not stated), the LC retention time rises from 1.8 min to 2.9 min (1.6-fold).

`CS(=O)(=O)c1ccc(C2=C(c3ccccc3)C(=O)OC2)cc1` and `Cc1onc(-c2ccccc2)c1-c1ccc(S(N)(=O)=O)cc1` are within 1.5-fold of each other in LC retention time: 16.8 min for the first, 18.5 min for the second.

`CN(C)CCCN1c2ccccc2CCc2ccccc21` and `CN(C)CCCN1c2ccccc2Sc2ccccc21` are within 1.5-fold of each other in LC retention time: 9.6 min for the first, 8.8 min for the second.

`CC(C)(C)NCC(O)COc1nsnc1N1CCOCC1` (configuration not stated) and `C[N+]1(CCC(O)(c2ccccc2)c2cccs2)CCOCC1` (configuration not stated) are within 1.5-fold of each other in LC retention time: 1.8 min for the first, 2.2 min for the second.

`COc1ccccc1OCC(O)CO` (configuration not stated) and `COc1ccccc1OCC(O)COC(N)=O` (configuration not stated) are within 1.5-fold of each other in LC retention time: 5 min for the first, 6.4 min for the second.

`Cc1cccc(C(C)c2cnc[nH]2)c1C` (configuration not stated) and `CCC1(c2cnc[nH]2)Cc2ccccc2C1` are within 1.5-fold of each other in LC retention time: 2.8 min for the first, 3 min for the second.

`CC(=O)c1ccc2c(c1)N(CCCN(C)C)c1ccccc1S2` and `CN(C)CCC=C1c2ccccc2CCc2ccccc21` are within 1.5-fold of each other in LC retention time: 8.7 min for the first, 10.3 min for the second.

`Cn1c(=O)c2[nH]cnc2n(C)c1=O` and `Cn1c(=O)c2c(ncn2C)n(C)c1=O` are within 1.5-fold of each other in LC retention time: 1.9 min for the first, 2.4 min for the second.

`Cc1cccc(C)c1NC1=NCCCS1` and `CCN(CC)CC(=O)Nc1c(C)cccc1C` are the same in LC retention time: 1.8 min for the first, 1.8 min for the second.

`N=C1NC(=O)C(c2ccccc2)O1` (configuration not stated) and `CCC1(c2ccccc2)C(=O)NCNC1=O` are within 1.5-fold of each other in LC retention time: 3.4 min for the first, 4.3 min for the second.

First: COc1ccc(CCN(C)CCCC(C#N)(c2ccc(OC)c(OC)c2)C(C)C)cc1OC (configuration not stated)
Second: COc1cc(CNC(=O)CCCCC=CC(C)C)ccc1O
The LC retention time of the first is 2.1-fold lower: 10.6 min for the first, 22.6 min for the second.

`CC12C=CC(=O)C=C1CCC1C2C(O)CC2(C)C1CCC2(O)C(=O)CO` (configuration not stated) and `CC1CC2C(C(O)CC3(C)C2CCC3(O)C(=O)CO)C2(C)C=CC(=O)C=C12` (configuration not stated) are within 1.5-fold of each other in LC retention time: 12.3 min for the first, 14.6 min for the second.

`CN(C)CCN(Cc1ccccc1)c1ccccn1` and `COc1ccc(CN(CCN(C)C)c2ccccn2)cc1` are within 1.5-fold of each other in LC retention time: 1.9 min for the first, 2 min for the second.

Compared with `CC(=O)CCCCn1c(=O)c2c(ncn2C)n(C)c1=O`, `CCCn1cnc2c1c(=O)n(CCCCC(C)=O)c(=O)n2C` is 2.2-fold higher in LC retention time: 5.4 min for the first, 12.1 min for the second.

First: COc1ccc2nc(S(=O)Cc3ncc(CO)c(OC)c3C)[nH]c2c1 (configuration not stated)
Second: COc1ccc2nc(S(=O)Cc3ncc(C)c(OC)c3C)[nH]c2c1 (configuration not stated)
The LC retention time of the first is 1.6-fold lower: 2.7 min for the first, 4.2 min for the second.

`Cc1cc(NC(=O)C2=C(O)c3ccccc3S(=O)(=O)N2C)no1` and `CN1C(C(=O)Nc2ccc(O)cn2)=C(O)c2ccccc2S1(=O)=O` are within 1.5-fold of each other in LC retention time: 21.4 min for the first, 15.8 min for the second.

`CCCCCc1cc(O)c2c(c1)OC(C)(C)C1CCC(C(=O)O)=CC21` (configuration not stated) and `CCCCCCCCC(=O)NCc1ccc(O)c(OC)c1` are within 1.5-fold of each other in LC retention time: 25.1 min for the first, 22.4 min for the second.

`CCCCNc1cc(C(=O)O)cc(S(N)(=O)=O)c1Oc1ccccc1` and `CS(=O)(=O)Nc1ccc([N+](=O)[O-])cc1Oc1ccccc1` are within 1.5-fold of each other in LC retention time: 20.7 min for the first, 21.9 min for the second.

`CCOC(=O)C1(c2ccccc2)CCN(C)CC1` and `COC(=O)C(c1ccccc1)C1CCCCN1` (configuration not stated) are within 1.5-fold of each other in LC retention time: 2.2 min for the first, 1.8 min for the second.

`CC(=O)SC1CC2=CC(=O)CCC2(C)C2CCC3(C)C(CCC34CCC(=O)O4)C12` (configuration not stated) and `COC(=O)C1CC2=CC(=O)CCC2(C)C23OC2CC2(C)C(CCC24CCC(=O)O4)C13` (configuration not stated) are within 1.5-fold of each other in LC retention time: 22 min for the first, 15.1 min for the second.

Compared with `CC(C)(C)C(=O)SCC(=O)C1(O)CCC2C3CCC4=CC(=O)CCC4(C)C3C(O)CC21C` (configuration not stated), `CC12CCC(=O)C=C1CCC1C2C(O)CC2(C)C1CCC2(O)C(=O)CO` (configuration not stated) is 1.9-fold lower in LC retention time: 24 min for the first, 12.6 min for the second.

`CCN(CCO)CCn1c(Cc2ccccc2)nc2c1c(=O)n(C)c(=O)n2C` and `Cn1c(=O)c2c(ncn2CCO)n(C)c1=O` are within 1.5-fold of each other in LC retention time: 1.5 min for the first, 2 min for the second.

Going from `CC[N+](C)(CC)CCOC(=O)C(O)(c1ccccc1)C1CCCCC1` (configuration not stated) to `CC[N+]1(C)CCCC(OC(=O)C(O)(c2ccccc2)c2ccccc2)C1` (configuration not stated), the LC retention time falls from 9 min to 3.4 min (2.6-fold).

Compared with `CC(=O)Nc1nnc(S(N)(=O)=O)s1`, `CC(=O)N=c1sc(S(N)(=O)=O)nn1C` is 1.5-fold higher in LC retention time: 2.3 min for the first, 3.5 min for the second.

Going from `Nc1nc(N)c2nc(-c3ccccc3)c(N)nc2n1` to `CCC(=O)NS(=O)(=O)c1ccc(-c2c(-c3ccccc3)noc2C)cc1`, the LC retention time rises from 2.9 min to 21.8 min (7.5-fold).

`CCCCNc1ccc(C(=O)OCCN(C)C)cc1` and `CCCCOc1cc(C(=O)OCCN(CC)CC)ccc1N` are within 1.5-fold of each other in LC retention time: 4.9 min for the first, 4.2 min for the second.

`C=CCC1(O)CCC2C3CCC4=CC(=O)CCC4=C3C=CC21C` (configuration not stated) and `CCC1(O)CCC2C3CCC4=CC(=O)CCC4=C3C=CC21CC` (configuration not stated) are within 1.5-fold of each other in LC retention time: 22.1 min for the first, 22.9 min for the second.

`CC1CC2C3CCC4=CC(=O)C=CC4(C)C3C(=O)CC2(C)C1(O)C(=O)CO` (configuration not stated) and `CC12C=CC(=O)C=C1CCC1C2C(=O)CC2(C)C1CCC2(O)C(=O)CO` (configuration not stated) are within 1.5-fold of each other in LC retention time: 15.1 min for the first, 12.4 min for the second.

`CN1C2CCC1C(C(=O)O)C(OC(=O)c1ccccc1)C2` (configuration not stated) and `C[N+]12CCC(CC1)C(OC(=O)C(O)(c1ccccc1)c1ccccc1)C2` (configuration not stated) are within 1.5-fold of each other in LC retention time: 2.6 min for the first, 3.4 min for the second.

`CCCCC1C(=O)N(c2ccccc2)N(c2ccccc2)C1=O` and `CCCCC1C(=O)N(c2ccccc2)N(c2ccc(O)cc2)C1=O` (configuration not stated) are within 1.5-fold of each other in LC retention time: 24 min for the first, 19.8 min for the second.

`Cn1c(=O)c2c(ncn2CC(=O)O)n(C)c1=O` and `Cn1c(=O)c2c(ncn2CC(O)CO)n(C)c1=O` (configuration not stated) are within 1.5-fold of each other in LC retention time: 2.42 min for the first, 1.9 min for the second.

`COc1cc(OC)c(C(=O)CCCN2CCCC2)c(OC)c1` and `CCCC(Cc1ccccc1)N1CCCC1` (configuration not stated) are within 1.5-fold of each other in LC retention time: 2 min for the first, 2.9 min for the second.

First: C[N+]1(C)CCCC(OC(=O)C(O)(c2ccccc2)c2ccccc2)C1 (configuration not stated)
Second: CC[N+]1(CC)CCC(=C(c2ccccc2)c2ccccc2)C1C (configuration not stated)
The LC retention time of the first is 3.2-fold lower: 3 min for the first, 9.6 min for the second.

First: Cc1cccc(Nc2ccncc2S(=O)(=O)NC(=O)NC(C)C)c1
Second: CC1(C)OC(=O)C(OCC2CC2)=C1c1ccc(S(C)(=O)=O)cc1
The LC retention time of the first is 2.4-fold lower: 8.5 min for the first, 20.4 min for the second.

First: CCOC(=O)c1ccc(N)cc1
Second: CCCN(CCC)S(=O)(=O)c1ccc(C(=O)O)cc1
The LC retention time of the first is 1.7-fold lower: 12.3 min for the first, 21.3 min for the second.

Compared with `Cc1c(NC=O)c(=O)n(-c2ccccc2)n1C`, `Cc1cc(=O)n(-c2ccccc2)n1C` is 1.6-fold higher in LC retention time: 2.6 min for the first, 4.1 min for the second.

`CC1(C)OC2CC3C4CCC5=CC(=O)C=CC5(C)C4C(O)CC3(C)C2(C(=O)CO)O1` (configuration not stated) and `CCCC1OC2CC3C4CCC5=CC(=O)C=CC5(C)C4C(O)CC3(C)C2(C(=O)CO)O1` (configuration not stated) are within 1.5-fold of each other in LC retention time: 16.5 min for the first, 20.1 min for the second.

First: Cn1cnc2c1c(=O)[nH]c(=O)n2C
Second: O=C1CN(N=Cc2ccc(-c3ccc([N+](=O)[O-])cc3)o2)C(=O)N1
The LC retention time of the first is 7.8-fold lower: 2 min for the first, 15.5 min for the second.

Going from `CN1CC(O)c2cc(N=NC(N)=O)c(O)cc21` (configuration not stated) to `O=C1NC(=O)N(N=Cc2ccc(-c3ccc([N+](=O)[O-])cc3)o2)C1O` (configuration not stated), the LC retention time rises from 1.7 min to 15.2 min (8.9-fold).

Compared with `CC(C)c1c(CN(C)C(C)Cc2ccccc2)n(C)n(-c2ccccc2)c1=O` (configuration not stated), `CCN(CC)C(=O)c1cccnc1` is 4.5-fold lower in LC retention time: 10.8 min for the first, 2.4 min for the second.
